Reference: patent US5916566A, “Use of benzoin gum to inhibit P-glycoprotein-mediated resistance of pharmaceutical compounds” (AvMax, Inc., priority 1998, dated 1999)
Like-named read-outs stand apart in the source and are kept apart here.

System: rat cytochrome P4503A
Settings: for % inhibition (0.001%): oil ingredient at 0.001 wt % (Table 2); for % inhibition (0.01%): oil ingredient at 0.01 wt % (Table 2); for % inhibition (0.0001%): oil ingredient at 0.0001 wt % (Table 2)

Compound | % inhibition (0.001%) [%] | % inhibition (0.01%) [%] | % inhibition (0.0001%) [%] | other results
C=C(C)[C@@H]1CC=C(C)CC1 [Limonene-(S)-(-), p-Mentha-1,8-diene] | 30 | 82.3 |  | 
CCOC(=O)/C=C/c1ccccc1 [Ethyl Cinnamate, trans-] | -16 |  | -13 | 
CC(C)=CCCC(C)CCO (stereo not drawn) [Citronellal-(DL)-(β), 3,7-Dimethyl-6-octen-1-ol] | 86 | 95 | 41 | 
COC(=O)c1ccccc1N [Methyl Anthranilate, Methyl 2-aminobenzoate] | 23 |  | -7 | 
CC1(C)[C@H]2CC[C@]1(C)[C@H](O)C2 [Borneol-(IS)-endo(-), 1,7,7-Trimethylbicyclo[2.2.1]heptan-2-ol] | 80 | 100 | 20 | 
C=C(C)[C@@H]1CC=C(C)C(=O)C1 [Carvone-(R)-(-), p-Mentha-6,8-dien-2-one] | 69 | 100 | 27 | 
CC(C)=CCC/C(C)=C/C=O [Citral] | 54 | 99 | 44 | 
CC(=O)N1CCN(c2ccc(OCC3COC(Cn4ccnc4)(c4ccc(Cl)cc4Cl)O3)cc2)CC1 (stereo not drawn) [Ketoconazole, reference compound] |  |  |  | % inhibition (reference compound at 0.000001 % (Table 3)): 8%; % inhibition (reference compound at 0.000005 % (Table 3)): 20%; % inhibition (reference compound at 0.00001 % (Table 3)): 42%; % inhibition (reference compound at 0.00005 % (Table 3)): 100%
C=C(C)[C@H]1CC=C(C)C(=O)C1 [Carvone-(S)-(+), p-Mentha-6,8-dien-2-one] | 70.5 |  | 30 | 
CC1(C)C(=O)[C@]2(C)CC[C@H]1C2 [Fenchone-(IR)-(-), 1,3,3-Trimethylbicyclo[2.2.1]heptan-2-one] | 38 |  | 14 | 
CC1=CCC2C(C1)C2(C)C (stereo not drawn) [Carene-3-(Δ)] | 34 |  | -26 | 
O=C/C=C/c1ccccc1 [Cinnamic Aldehyde, trans-, 3-Phenylpropenaldehyde] | 29.0 | 78 |  | 
C=C(C)C1CC=C(C)C(O)C1 (single isomer, unassigned) [Carveol-(-), p-Mentha-6,8-dien-2-ol] | 60 |  | 2 | 
C=C1CC[C@H]2C[C@@H]1C2(C)C [Pinene-(IS)-(-)-β, 6,6-Dimethyl-2-mehylenebicyclo[3.1.1]heptane] | 60 | 88 | -10 | 
Cc1ccc(C(C)C)c(O)c1 [Thymol, 2-isoPropyl-5-methylphenol] | 56 | 100 |  | 
C=CCc1ccc(O)c(OC)c1 [Eugenol, 4-Allyl-2-methoxyphenol] | 66 | 100 | 9.8 | 
CC12CCC(CC1)C(C)(C)O2 [Eucatyptol, 1,8-Cincole] | 64 | 88 | 38 | 

Compound | % inhibition (0.001%) [%] | % inhibition (0.01%) [%] | % inhibition (0.0001%) [%] | other results
C=CC(C)(O)CCC=C(C)C (racemic) [Linalcol-(±), 3,7-Dimethyl-1,6-octadien-3-ol] | 72.0 | 85 | 41 | 
C=CC(=C)CCC=C(C)C [Myrcene-β, 7-Methyl-3-methylene-1,6-octadiene] | 13 |  | 0 | 
C=CCc1ccc(OC)cc1 [Entragole, 4-Allylanisole] | 69.2 | 100 | 7 | 
CC12CCC(CC1=O)C2(C)C (racemic) [Camphor-(±), 1,7,7-Trimethylbicyclo[2.2.1]heptan-2-one] | 57 | 87 |  | 
C=CC(C)(CCC=C(C)C)OC(C)=O (stereo not drawn) [Linalyl Acetate, 3,7-Dimethyl-1,6-octadien-3-yl acetate] | 55.8 | 100 |  | 
C=C1C2CCC(C2)C1(C)C (single isomer, unassigned) [Camphene-(+), 2,2-Dimethyl-3-methylenebicyclo[2.2.1]heptane] | 12.4 |  | -49 | 
CC1=CCC(C(C)(C)O)CC1 (stereo not drawn) [Terpincol-α, p-Menth-1-en-8-ol] | 86 | 100 | 13.4 | 
CC(=O)OC/C=C(\C)CCC=C(C)C [Geranyl Acetate, trans-3,7-Dimethyl-2,,6-octadien-1-yl acetate] | 51.5 | 73 |  | 
C/C=C/c1ccc(OC)cc1 [Anethole, trans-, 4-Propenylanisole] | 53 | 100 |  | 
COc1cc(CNC(=O)CCCC/C=C/C(C)C)ccc1O [Capsaicin, trans-8-Methyl-N-vanillyl-6 nonenamide] | 68 |  | 27 | 
Cc1ccc(C(C)C)cc1O [Carvacrol, 5-isoPropyl-2-methylphenol] | 93 | 97 | 11 | 
COC(=O)c1ccccc1O [Methyl Salicylate, Methyl-2-hydroxybenzoate] | 12 | 86 |  | 
CC1=CC=C(C(C)C)CC1 [Terpinene-α, p-Mentha-1,3-diene] | 28 |  | -6 | 
CCOc1cc(C=O)ccc1O [Ethyl Vanillin, 3-Ethoxy-4-hydroxybenzoledhyde] |  | 58 |  | 
CC(C)=C1CC[C@@H](C)CC1=O [Pulegone-(R)-(+), p-Menth-4-(8)-en-3-one] | 31 |  | -17 | 
C=C1CC/C=C(\C)CC[C@@H]2[C@@H]1CC2(C)C [Caryophyllene, trans-(-), β Caryophyllene] | 85 |  | 26 | 
CC1=CCC(O)(C(C)C)CC1 (stereo not drawn) [Terpinen-4-ol, p-Menth-1-en-4-ol] | 80 | 100 | 3.81 | 
